The record followed here is US20040180895A1, “Use of a pyridazinone derivative” (priority 2001, published 2004).

A word on the half-life: it is the time needed for the level to fall by half in the phase considered.

Data set [1] in a line: Elimination half-life of the active ingredient in man. Particulars: human, in vivo. The source says:
The active ingredient of the invention may be administered periodically, e.g. weekly or biweekly, or daily or several times a day, depending on the patient's needs. […] Therefore, a periodical treatment, e.g. weekly, may be satisfactory.

Data set [2] deals with congestive heart failure patients. Put plainly: All-cause mortality (Kaplan Meier) in congestive heart failure patients, dobutamine controlled studies. It counts as in vivo, human. Particulars: intravenous levosimendan 0.1-0.2 μg/kg/min for 24 hours vs dobutamine; FIG. 2.
Another data set concerns plasma proteins. Put plainly: Plasma protein binding. It counts as in vitro ADME. Particulars: read-out: bound to plasma proteins (converted). The text has this: It is known that the favourable hemodynamic effects following intravenous administration of levosimendan are seen considerably longer than levosimendan concentrations are observed in plasma. […] However, it has also been discovered that only about 30% of the active metabolite is bound to plasma proteins whereas as much as 98% of levosimendan is bound to plasma proteins. Therefore, the active free concentration of the active metabolite in plasma is proportionally much higher than that of levosimendan.

The nature of data set [3]: Plasma concentrations following 24 h levosimendan infusion in heart failure patients. It counts as in vivo, human. Particulars: levosimendan 0.2 μg/kg/min for 24 hours; for half-life: human, plasma, intravenous, 0.2 ug/kg, FIG. 1, read-out: elimination half-life (converted). How it is done: Plasma concentrations of levosimendan and its active metabolite (R)-N-[4-(1,4,5,6-tetrahydro-4-methyl-6-oxo-3-pyridazinyl)phenyl]acetamide (OR-1896) following administration of 0.2 μg/kg/min of levosimendan for 24 hours in heart failure patients are shown in FIG. 1.

SMILES strings stand for the structures.

Consider `CC(=O)Nc1ccc(C2=NNC(=O)CC2C)cc1` (centres unmarked) [(I), N-[4-(1,4,5,6-tetrahydro-4-methyl-6-oxo-3-pyridazinyl)phenyl]acetamide], for which the half-life in data set [1] was ~72 h.

Turning to `C[C@@H]1CC(=O)NN=C1c1ccc(NN=C(C#N)C#N)cc1` [levosimendan], the “all-cause mortality (0-14 days), Kaplan Meier survival curves” value in data set [2] is “survival curves are clearly diverging throughout the observation period”. Moreover, the fraction unbound in the data set with plasma proteins was 0.02. The half-life in data set [3] is ~1.3 h. In data set [3] (one day after discontinuation), the “plasma concentrations after discontinuation of infusion” value is given as “not detectable one day after the discontinuation of infusion”.

For `CC(=O)Nc1ccc(C2=NNC(=O)C[C@H]2C)cc1` [OR-1896, (R)-N-[4-(1,4,5,6-tetrahydro-4-methyl-6-oxo-3-pyridazinyl)phenyl]acetamide], the fraction unbound in the data set on plasma proteins was ~0.7. Besides, the half-life in data set [3] was ~77 h. Also, the “time plasma concentrations are detectable after the infusion” value in data set [3] (FIG. 1) was determined as 12 days.
